# Key:
# [1] = system: IL-12p70; experiment: IL-12p70 titration in day-6 macrophage culture supernatants; assay type: cell-based, human; settings: day-6 supernatants, 3 blood donors, GW2580 1 μM; for IL-12p70 secretion: mAbs 1 μg/ml, detection limit 11 pg/ml
# Description: (§1) IL-12p70 and IL-10 were titrated in the culture supernatants from day-6 macrophages differentiated in the presence of mAb H27K15 (1 μg/ml), GW2580 (1 μM) or their respective negative controls rituximab or no treatment. Left panel: IL-12p70 and IL-10 levels […] in macrophage cultures from 3 blood donors. Right: IL-12p70 […]/IL-10 […] ratios were calculated for each blood donor and each culture condition. In samples where IL-12p70 was undetectable (below the detection limit of 11 pg/m)l, its level was arbitrarily set at 1 pg/ml for the calculation of IL-12p70/IL-10 ratios.
# (§2) Buffy coats were provided by the Etablissement Français du Sang (EFS, Strasbourg). Peripheral blood mononucleated cells (PBMC) were obtained by centrifugation on a ficoll gradient. Monocytes were purified by immunomagnetic cell sorting, using CD14-antibody-coated beads (Miltenyii). Enriched monocyte suspensions were more than 95% pure. Monocytes were differentiated for 6 days in 48-well plates (3×10^5 cells/well) in RPMI-Glutamax™ medium supplemented with 10% heat inactivated fetal calf serum and 1% tri-antibiotic mixture (penicillin, streptomycin, neomycin). GM-CSF (10 ng/ml) was added in the cell culture medium from day 0 to day 3. H27K15, other antibodies or internal control GW2580 (LC Labs) were added at day 0. On day 3 post-isolation, monocytes were washed with PBS and further cultivated in medium supplemented with CSF-1 (10 ng/ml) and GM-CSF (2 ng/ml), in the presence or absence of antibodies or GW2580. On day 6, supernatants were collected and stored at −20° C. Cells were detached from the plastic and pools of triplicates were analyzed by IC/FC (immunocytochemistry/flow cytometry) for cell sizes and expression of FcγR and CD86. Cytokines and chemokines were quantified in the culture supernatants by multiplex (Bioplex, Bio-Rad) or by ELISA.
# IL-12p70 and IL-10 were titrated in day-6 culture supernatants.
# [2] = system: differentiating macrophages; experiment: Human macrophage differentiation assay: microscopical observation and cell counts of day-6 cultures (cytotoxicity); assay type: cell-based; settings: for Microscopical observation of day-6 cultures (cytotoxicity), compared with untreated cells: all doses evaluated (mAbs 0.1, 1, 10 μg/ml, F(ab′)2 0.066, 0.66, 6.6 μg/ml), all donors
# Text: Cells were counted following a 6-day culture of monocyte, or precursors thereof, s with GM-CSF and CSF-1, in the presence or absence of anti-CD115 mAbs or F(ab′)2 or with GW2580. Controls included cultures treated with rituximab or rituximab F(ab′)2, or without any added compound.
# as §2, with “Enriched monocyte suspensions were more than 95% pure.” left out
# Three different doses of mab H27K15 or isotype control rituximab (0.1; 1 or 10 μg/ml) were added to the culture medium at the beginning of the culture and again 3 days later. F(ab′)2 generated from H27K15 or from rituximab were tested in parallel at equivalent molar concentrations.
# Cell viability was analyzed at day 6 by counting 5 microscope fields in each well of the plate (one in the center of the well and four fields at mid-distance between the center and the side of the well).
# [3] = system: CD86; experiment: Induction of CD86bright SSClow macrophage population by IC/FC; assay type: cell-based, human; settings: day-6 macrophages; mAb 10, 1, 0.1 μg/ml, F(ab′)2 equimolar, GW2580 1 μM
# Description: Upper panels: Dot plots showing CD86 staining (x-axis) and side scatter (SSC, y-axis) of macrophages from donor 3 differentiated for 6 days in the presence of H27K15 (left) or negative control rituximab (right). A gate was set on the CD86^bright SSC^low cell population induced by H27K15. Lower panel: Percentages of CD86^bright SSC^low cells with the test compounds at 10, 1 or 0.1 μg/ml* were compared with those in the corresponding negative controls: H27K15 vs rituximab, H27K15-derived F(ab′)2 vs rituximab-derived F(ab′)2, GW2580 vs no treatment. Percentages of increase in the CD86^bright SSC^low cell population were calculated as: 100×percentage of CD86^bright SSC^low cells with test compound/percentage of CD86^bright SSC^low cells with control. Shown are the mean percentages of increase in the CD86^bright SSC^low cell population from the 3 blood donors. *except for F(ab′)2: 6.6; 0.6; and 0.06 μg/ml.
# (§3) Buffy coats were provided by the Etablissement Français du Sang (EFS, Strasbourg). Peripheral blood mononucleated cells (PBMC) were obtained by centrifugation on a ficoll gradient. […] Cells were detached from the plastic and pools of triplicates were analyzed by IC/FC (immunocytochemistry/flow cytometry) for cell sizes and expression of FcγR and CD86. Cytokines and chemokines were quantified in the culture supernatants by multiplex (Bioplex, Bio-Rad) or by ELISA. […]
# [4] = system: CD163+ M2-type macrophages; experiment: Flow cytometry of CD163-positive M2-type macrophages in day-6 cultures; assay type: cell-based, human; settings: day-6 cultures with GM-CSF and CSF-1; 3 donors
# Description: Cells obtained after 6-day culture with GM-CSF and CSF-1 were harvested and incubated for 20 min at 4° C. with PBS containing human IgG Fc fragments to saturate Fc receptors. Fluorochrome-conjugated mAbs (anti-CD14-PerCP-Cy5.5, anti-CD163-PE, anti-CD206-APC, anti-CD1a-FITC, BD Biosciences) were then incubated with each sample for 20 min at 4° C. FCM analysis was performed using a FACS LSR-II (BD biosciences) with the DIVA software. Data from 3 different blood donors are presented.
# The surface expression of CD163 was analyzed by flow cytometry in day-6 macrophages derived from human monocytes cultured with GM-CSF and CSF-1. […] Culture with mAb H27K15 inhibited the differentiation of the CD163^+ macrophage population in all 3 donors tested. In the presence of 1 μg/ml H27K15, percentages of CD163-positive cells decreased from 2.5 to 4 folds compared with control cultures treated with rituximab.
# [5] = system: MMP-9; experiment: MMP-9 ELISA in day-6 supernatants of monocytes cultured with GM-CSF and CSF-1; assay type: cell-based, human; settings: mAb 0.1, 1, 10 μg/ml, F(ab)′2 equimolar, effect in 2 out of 3 donors
# Description: Monocytes isolated from 3 different blood donors were differentiated for 6 days in the presence of GM-CSF and CSF-1, with or without mAb H27K15, Rituximab or GW2580. MAb H27K15 or Rituximab (0.1, 1 or 10 μg/ml) or equimolar concentrations of F(ab)′2 derived from both mAbs were added to the cultures. MMP-9 was titrated by ELISA (R&D Systems) in day-6 culture supernatants.
# CD14^+ monocytes from 3 different donors were allowed to differentiate in the presence of both GM-CSF and CSF-1, known to induce macrophage differentiation towards respectively the M1- and M2-types. MAb H27K15 or Rituximab (used as a negative control) were added to the cultures at 0.1, 1 or 10 μg/ml. Equimolar concentrations of F(ab)′2 derived from both mAbs were assayed in parallel. The tyrosine kinase inhibitor GW2580, previously shown to inhibit the CSF-1-dependent proliferation of human monocytes and the differentiation of murine macrophages in vitro was tested in the same assay. After 6 days of culture, MMP-9 concentrations were measured in the supernatants by ELISA (FIG. 6). […] Thus, mAb H27K15 is capable of decreasing MMP-9 secretion by differentiating M2 macrophages.
# [6] = system: IL-10; experiment: IL-10 titration in day-6 macrophage culture supernatants; assay type: cell-based, human; settings: day-6 supernatants; GW2580 1 μM
# Description: as §1
# as §3, with “gradient. Monocytes were purified by immunomagnetic cell sorting, using CD14-antibody-coated beads (Miltenyii). Enriched monocyte suspensions were more than 95% pure.” for “gradient.”
# [7] = system: CD64 (FcγRI); experiment: Surface expression of CD64 on day-6 macrophages by IC/FC; assay type: cell-based, human; settings: GW2580 1 μM vs no treatment
# Description: Macrophages obtained following a 6-day culture of monocyte, or precursors thereof from 3 different blood donors with GM-CSF and CSF-1 were analyzed by IC/FC for surface expression of CD64. Upper panels: CD64 staining in cultures from donor 1 treated with monoclonal antibody H27K15 (left, bold line) or with GW2580 (right, bold line) or their respective negative controls rituximab (left, thin line) or no treatment (right, thin line). Lower panel: Medians of fluorescence intensities in macrophage cultures treated with test compounds at 10, 1 or 0.1 μg/ml* were compared with those in the corresponding negative controls: H27K15 vs rituximab, H27K15-derived F(ab′)2 vs rituximab-derived F(ab′)2, mAbs 2-4A5 or 9-4D2 vs rat IgG1, GW2580 vs no treatment. Percentages of reduction in CD64 expression were calculated as: 100−[100×Median fluorescence intensity with test compound/Median fluorescence intensity with control]. […]
# as §3, with “Strasbourg).” for “Strasbourg). Peripheral blood mononucleated cells (PBMC) were obtained by centrifugation on a ficoll gradient.”
# [8] = system: MCP-1/CCL2; experiment: MCP-1/CCL2 titration in day-6 macrophage culture supernatants; assay type: cell-based, human; settings: day-6 supernatants; H27K15 1 μg/ml, GW2580 1 μM
# Description: MCP-1 and IL-6 were titrated in the culture supernatants from day-6 macrophages differentiated in the presence of mAb H27K15 (1 μg/ml), GW2580 (1 μM) or their respective negative controls rituximab or no treatment. Percentages of reduction in MCP-1 (upper panel) or in IL-6 production (lower panel) were calculated for the 3 blood donors as: 100−[100×cytokine concentration with test compound (pg/ml)/cytokine concentration with control (pg/ml)].
# as §2, with “H27K15, other antibodies or internal control GW2580 (LC Labs) were added at day 0. On day 3 post-isolation, monocytes were washed with PBS and further cultivated in medium supplemented with CSF-1 (10 ng/ml) and GM-CSF (2 ng/ml), in the presence or absence of antibodies or GW2580. On day 6, supernatants were collected and stored at −20° C.” left out, “ELISA. […]” for “ELISA.”
Compound,IL-12p70 secretion [1],"Microscopical observation of day-6 cultures (cytotoxicity), compared with untreated cells [2]",Induction of CD86bright SSClow cell sub-population [3],differentiation of the CD163+ macrophage population [4],"IL-12p70/IL-10 ratios ([1]; H27K15 1 μg/ml, vs rituximab or no treatment)",MMP-9 production [5],macrophage number remained at day 6 compared with untreated cultures ([2]; 1 μM),"Microscopical observation of day-6 cultures (cytotoxicity) ([2]; 1 μM, all blood donors)",IL-10 production [6],surface expression of CD64 [7],production of the chemokine MCP-1/CCL2 [8]
"Rituximab: human IgG1 isotype / negative control, obtained from Roche",did not produce any detectable IL-12p70,no obvious differences,–,–,–,–,–,–,–,–,–
"Rituximab F(ab′)2: F(ab′)2 produced by pepsine digestion of rituximab, negative control",–,no obvious differences,–,–,–,–,–,–,–,–,–
"COc1ccc(COc2ccc(Cc3cnc(N)nc3N)cc2OC)cc1 [GW2580, reference compound]",not detectable,–,had appeared,same effect in only 2/3 donors,increased,dose-dependent decrease,approximately 70%,relative cytotoxicity,inhibition,drastically reduced,almost totally suppressed
